# Laboratory results taken from ChEMBL document CHEMBL1156407, “The antiplasmodial activity of isolates from Ajuga remota” (J Nat Prod, 2002).
# Calls of active or inactive are those of the source. The rule behind the calls is not given here.
# Columns and labels:
# [1] = Cytotoxicity against human A431 cells by MTT assay; assay type: cell-based, A-431; conditions: read-out: ED50 (the source's name)
# Plasmodium falciparum [2] = assay: Antiplasmodial activity after 72 hrs against chloroquine-sensitive Plasmodium falciparum FCA10/GHA as LDH activity; assay type: functional, organism-based
# [3] = Selectivity index, ratio of ED50 for human A431 cells to IC50 for chloroquine-sensitive Plasmodium falciparum FCA10/GHA; assay type: functional, A-431
# Plasmodium falciparum [4] = assay: Antiplasmodial activity after 72 hrs against chloroquine-sensitive Plasmodium falciparum FCA10/GHA at 500 uM by LDH activity; assay type: functional, organism-based
SMILES,CC50 [1] [µM],IC50 (Plasmodium falciparum [2]) [µM],Ratio [3],Activity (Plasmodium falciparum [4])
CC(=O)OC[C@@]12[C@@H](OC(C)=O)C[C@@H](C)[C@](C)(CCC3=CC(=O)OC3)[C@H]1CCC[C@]21CO1 [AJUGARIN I],> 88,23,>4,–
CC(C)C/C=C/C[C@H]1CC[C@@H]2[C@]1(C)CCC1[C@]23C=C[C@]2(C[C@@H](O)CC[C@]12C)OO3 (some centres undefined),> 23,8.2,>3,–
O=c1[nH]cc(F)c(=O)[nH]1 [FLUOROURACIL],44,–,–,–
CC(=O)O[C@@]1(C)C[C@@H](O)[C@]2(O)C=CO[C@@H](O[C@@H]3O[C@H](CO)[C@@H](O)[C@H](O)[C@H]3O)[C@@H]21,310,–,–,inactive
